Results reported in patent US7998940B2, “Aptamers to von Willebrand factor and their use as thrombotic disease therapeutics” (Archemix Corp., priority 2004, dated 2011).
Where two headings read alike, the source gives them in different places. Oligonucleotides are written 5' to 3', each unit as a sugar letter and its base; * is a phosphorothioate linkage, no mark a phosphodiester; rarer units and linkages stand in square brackets, end groups in braces. Plain capitals give the bases only. d = 2'-deoxy (DNA); r = 2'-OH (RNA); f = 2'-fluoro

Legend:
[1] = test system: full length human vWF binding to lyophilized platelets; assay: Full length human von Willebrand Factor platelet binding assay (FACS); format: cell-based; details: 5 nM full length human vWF, lyophilized platelets, botrocetin; for Inhibition of full length hVWF binding in FACS assay, IC50 range: both bounds in nM
Procedure: The amount of vWF bound to fixed platelets can be measured with an antibody to vWF. The fluorescence signal from bound antibody incubated with a fluorescein conjugated secondary antibody is then detected and quantified by flow cytometry. The ability of an aptamer of the invention to block vWF binding to platelets is correlated with a reduction in fluorescence signal.
Aptamer potency to block human vWF binding to lyophilized platelets was assessed by flow cytometric analysis. Titrations of aptamers (0 nM, 0.1 nM to 1000 nM) were pre-incubated briefly with 5 nM of full length human vWF in FACS buffer (PBS plus 0.5% bovine serum albumin) at room temperature in a volume of 50 uL. Another 50 uL containing 5 uL of lyophilized platelets plus 1 uL of 0.1 U/uL of botrocetin in FACS buffer was added to aptamer/vWF. This reaction was allowed to proceed for 15 minutes at 37 degrees C. after which 200 uL of FACS buffer was added. Platelets were collected by a 6 minute spin at 1470 RCF and the supernatant was discarded. The pellets were resuspended in 100 uL of FACS buffer containing a 1:100 dilution of anti-vWF antibody and were incubated at room temperature for 30 minutes. After dilution with 200 uL of FACS buffer, the platelets were spun at 1470 RCF for 6 minutes and the supernatant was discarded. The pellets were resuspended in a 1:100 solution of anti-IgG2a-FITC antibody and were incubated in the dark for 30 minutes at room temperature. The entire 100 uL was diluted into 200 uL of FACS buffer and analyzed immediately by flow cytometric analysis in the FACSCAN. Artifactual data from contaminating debris was eliminated from the analysis by drawing a gate around the population of single and aggregated platelets. Mean fluorescent intensity (“MFI”) readings were quantified for each sample analyzed by flow cytometry. Background MFI was subtracted from all data points. Percent inhibition was reported by calculating the percent value of binding of full length human vWF to platelets in the presence of aptamer at a given concentration relative to binding in the absence of any aptamer (see FIG. 7). IC50 values were determined by fitting the percent inhibition of vWF binding to platelets as a function of aptamer concentration to the equation: % inhibition=% inhibitionmax/(1+IC50/aptamer conc.)

[2] = test system: full length human vWF (SEQ ID NO 7); assay: dot blot KD determination and extent of binding, full length human vWF; details: rRdY minimers; 8 point titration 0-300 nM; read-out: Full length human vWF KD;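 also: dot blot binding of aptamers to full length human vWF across a protein titration, incubated 30 minutes at room temperature in 1x DPBS with BSA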
[3] = test system: rabbit vWF A1 domain (SEQ ID NO 6); assay: 3-point dot blot screen, rabbit vWF A1 domain; format: binding; details: DNA SELEX 1 aptamers; 100 nM rabbit vWF A1 domain; ratio of fraction bound with target to without
Source text: (§1) When a significant positive ratio of binding of RNA in the presence of human or rabbit vWF A1 domain versus in the absence of protein was seen, the pools were cloned using the TOPO TA cloning kit (Invitrogen, Cat. #45-0641, Carlsbad, Calif.) according to the manufacturer's instructions. Round 9 and 12 pool templates were cloned and sequenced (125 total sequences), producing 48 unique clones. All unique clones were transcribed, desalted, 5-^32P end-labeled, and assayed in a 3-point dot blot screen (no protein target control, 100 nM human vWF A1 domain (SEQ ID NO 5, FIG. 3), or 100 nM rabbit vWF A1 domain (SEQ ID NO 6, FIG. 3). The data is presented in the third and fourth columns of Table 4 below as the ratio of the fraction of the aptamer bound to the nitrocellulose in the presence of the target protein to the fraction of aptamer bound in the absence of the target protein.
(§2) When a significant positive ratio of binding of RNA in the presence of human or rabbit vWF A1 domain (SEQ ID NOS 4 and 6, respectively) versus in the absence of protein was seen, the pools were cloned using the TOPO TA cloning kit (Invitrogen Cat. #45-0641, Carlsbad, Calif.) according to the manufacturer's instructions. Round 9 and 12 pool templates were cloned and sequenced (185 total sequences), producing 78 unique clones within 3 sequence families. All unique clones were transcribed, desalted, 5-^32P end-labeled, and assayed in a 3-point dot blot screen (no protein target control, 100 nM human vWF A1 domain (SEQ ID NO 5), or 100 nM rabbit vWF A1 domain (SEQ ID NO 6). The data are presented in the third and fourth columns of Table 9 below as the ratio of the fraction of the aptamer bound to the nitrocellulose in the presence of the target protein to the fraction of aptamer bound in the absence of the target protein. Of the three sequence families, members of Family #1 and #2 and two individual, non-family aptamers, bound to both human vWF domain A1 (SEQ ID NO 5) and rabbit vWF domain A1 (SEQ ID NO 6).
(§3) All unique clones were assayed in a 3-point dot blot screen (no protein target control, 100 nM human vWF A1 domain (SEQ ID NO 5), or 100 nM rabbit vWF A1 domain (SEQ ID NO 6). The data are presented in the third and fourth columns of Table 14 below as the ratio of the fraction of the aptamer bound to the nitrocellulose in the presence of the target protein to the fraction of aptamer bound in the absence of the target protein.
When a significant positive ratio of binding of DNA in the presence of human or rabbit vWF A1 domain versus in the absence of protein was seen, the pools were cloned using the TOPO TA cloning kit (Invitrogen Cat. #45-0641, Carlsbad, Calif.) according to the manufacturer's instructions. Round 7 and 11 pool templates were cloned and sequenced (218 total sequences), producing 146 unique clones within 12 sequence families of which sequences from six families show vWF target binding activity. All unique clones were assayed twice in a 3-point dot blot screen (no protein target control, 20 nM full length human vWF (Calbiochem Cat. #681300, La Jolla, Calif.), or 20 nM rabbit vWF A1 domain. The data is presented in the third and fourth columns of Table 17 below as the ratio of the fraction of the aptamer bound to the nitrocellulose in the presence of the target protein to the fraction of aptamer bound in the absence of the target protein.

[4] = molecular target: human vWF A1 domain (SEQ ID NO 5) (Homo sapiens, UniProt P04275, T1381A); assay: 3-point dot blot screen, human vWF A1 domain; format: binding; details: DNA SELEX 1 aptamers; 100 nM human vWF A1 domain; ratio of fraction bound with target to without
Source text: as §1, §2, §3

[5] = read-out: Inhibition of full length hVWF binding in FACS assay, Average IC50
[6] = units in the cell: lower bound pM, upper bound nM, read-out: Inhibition of full length hVWF binding in FACS assay, IC50 range

rabbit vWF A1 domain (SEQ ID NO 6), sequence (as listed by the source): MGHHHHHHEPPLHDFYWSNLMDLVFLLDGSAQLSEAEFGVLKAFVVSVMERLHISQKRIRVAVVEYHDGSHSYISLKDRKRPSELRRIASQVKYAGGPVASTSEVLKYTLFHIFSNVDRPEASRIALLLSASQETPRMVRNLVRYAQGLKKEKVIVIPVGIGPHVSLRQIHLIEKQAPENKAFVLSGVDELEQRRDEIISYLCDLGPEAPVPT
human vWF A1 domain (SEQ ID NO 5), sequence (P04275 with tags, fused parts or gaps T1381A): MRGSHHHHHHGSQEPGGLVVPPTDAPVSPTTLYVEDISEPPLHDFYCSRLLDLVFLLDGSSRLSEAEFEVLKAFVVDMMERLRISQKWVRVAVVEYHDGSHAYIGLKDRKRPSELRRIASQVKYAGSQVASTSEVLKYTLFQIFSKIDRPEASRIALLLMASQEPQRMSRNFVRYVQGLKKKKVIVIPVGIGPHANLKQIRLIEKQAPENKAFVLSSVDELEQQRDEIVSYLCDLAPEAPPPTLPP

## GGACCACCCUCGCAAGCAUUGAGAAAUGACUUGUGCCGCUGGUCC (rGrGrAfCfCrAfCfCfCfUfCrGfCrArArGfCrAfUfUrGrArGrArArAfUrGrAfCfUfUrGfUrGfCfCrGfCfUrGrGfUfCfC) [SEQ ID NO 172, minimized rRfY aptamer]
[1]; [5]
  IC50: 4300 pM

## GGACCACCCUCGCAAGCAUUUUAAGAAUGACUUGUGCCGCUGGUCC (rGrGrAfCfCrAfCfCfCfUfCrGfCrArArGfCrAfUfUfUfUrArArGrArAfUrGrAfCfUfUrGfUrGfCfCrGfCfUrGrGfUfCfC) [SEQ ID NO 169, minimized rRfY aptamer]
[1]; [5]
  IC50: 6900 pM
[1]; [6]
  IC50: 103 to 17000 pM

## GGAGCCACACGACATTGGCGAGAGCCACGCATGGCTCC (chemistry not given here) [SEQ ID NO 194, minimized rRdY aptamer]
[1]
  Inhibition of full length hVWF binding in FACS assay, IC50 range: no activity

## GGAGCCACACGACATTGGCGGGTTGTAATTACCACGCATGGCTCC (rGrGrArGdCdCrAdCrAdCrGrAdCrAdTdTrGrGdCrGrGrGdTdTrGdTrArAdTdTrAdCdCrAdCrGdCrAdTrGrGdCdTdCdC) [SEQ ID NO 189, minimized rRdY aptamer]
[1]; [5]
  IC50: 1100 pM
[1]; [6]
  IC50: 564 to 1600 pM
[2]
  Kd: 1 nM

## GGAGCCACACGAGAGTGGCGGGTTGTAATTACCACGCATGGCTCC (chemistry not given here) [SEQ ID NO 196, minimized rRdY aptamer]
[1]
  Inhibition of full length hVWF binding in FACS assay, IC50 range: no activity

## GGAGCGCACTCAGCCACACGACATTGGCGGGTTGTAATTACCACGCATGGCTG (chemistry not given here) [SEQ ID NO 186, minimized rRdY aptamer]
[1]; [5]
  IC50: 1300 pM
[1]; [6]
  IC50: 971 to 2200 pM

## GGAGCGCACTCAGCCACGGGGTGGGTAGACGGCGGGTATGTGGCT (chemistry not given here) [SEQ ID NO 177, minimized rRdY aptamer]
[1]; [5]
  IC50: 3000 pM

## GGAGCGCACUCAGCCACCCUCGCAAGCAUUUUAAGAAUGACUUGUGCCGCUGGCU G (rGrGrArGfCrGfCrAfCfUfCrArGfCfCrAfCfCfCfUfCrGfCrArArGfCrAfUfUfUfUrArArGrArAfUrGrAfCfUfUrGfUrGfCfCrGfCfUrGrGfCfUrG) [SEQ ID NO 165, minimized rRfY aptamer]
[1]; [5]
  IC50: 6400 pM
[1]; [6]
  IC50: 562 to 14400 pM

## GGAGCTCCAGTGTTTTATCTAATAACCGTGCGGTGCCTCCGTGAGCTCC (chemistry not given here) [SEQ ID NO 209, minimized DNA aptamer]
[1]
  Inhibition of full length hVWF binding in FACS assay, IC50 range: no activity

## GGAGCTGCGGTTTGGTCGACGTCAGCTCC (DNA, backbone not given here) [SEQ ID NO 210, minimized DNA aptamer]
[1]
  Inhibition of full length hVWF binding in FACS assay, IC50 range: no activity

## GGTAGCGACTCTGTGGAGCTGCGGTTTGG (DNA, backbone not given here) [SEQ ID NO 211, minimized DNA aptamer]
[1]
  Inhibition of full length hVWF binding in FACS assay, IC50 range: no activity

B1: AMX200.E10: DNA SELEX 1 aptamer clone (nucleic acid)
DNA: CTACCTACGATCTGACTAGCAAGGGGATTGGCTCCGGGTCTGGCGTGCTCGGCACCTTTGGCTTACTCTCATGTAGTTCC
modifications: DNA, backbone not given here
notes: DNA SELEX 1 aptamer clone
[3]
  Screen- Rabbit/No Protein: 1.82
[4]
  Screen- Human/No Protein: 1.69

B2: AMX202.H10: DNA SELEX 1 aptamer clone (nucleic acid)
chain: CTACCTACGATCTGACTAGCGGAATGAGAAGGCTGGTGGATTGCTCAGGTCTGCTGGCTGCTTACTCTCATGTAGTTCC
modifications: DNA, backbone and methylation of C not given here
notes: DNA SELEX 1 aptamer clone
[3]
  Screen- Rabbit/No Protein: 1.76
[4]
  Screen- Human/No Protein: 1.92

B3: AMX202.B8: DNA SELEX 1 aptamer clone (nucleic acid)
DNA: CTACCTACGATCTGACTAGCGGAATGAGTATGCTGATGGATTGCTCAGGTCTGCTGGCTGCTTACTCTCATGTAGTTCC
modifications: DNA, backbone not given here
notes: DNA SELEX 1 aptamer clone
[3]
  Screen- Rabbit/No Protein: 1.41
[4]
  Screen- Human/No Protein: 1.66

B4: AMX202.D6: DNA SELEX 1 aptamer clone (nucleic acid)
DNA: CTACCTACGATCTGACTAGCGGAATGAGAAGGCTGATGGATTGCTCAGGTCTGCTGGCTGCTTACTCTCATGTAGTTCC
modifications: DNA, backbone not given here
notes: DNA SELEX 1 aptamer clone
[3]
  Screen- Rabbit/No Protein: 1.55
[4]
  Screen- Human/No Protein: 1.94

B5: AMX202.A3: DNA SELEX 1 aptamer clone (nucleic acid)
DNA: CTACCTACGATCTGACTAGCGGAATGAGAGCGCTGATGGATTGCTCAGGTCTGCTGGCTGCTTACTCTCATGTAGTTCC
modifications: DNA, backbone not given here
notes: DNA SELEX 1 aptamer clone
[3]
  Screen- Rabbit/No Protein: 2.10
[4]
  Screen- Human/No Protein: 2.28

B6: AMX202.A8: DNA SELEX 1 aptamer clone (nucleic acid)
DNA: CTACCTACGATCTGACTAGCAAGGGGATTGGCTCCGGGTCTGGCGTGCTCGGCACTTCCGGCTTACTCTCATGTAGTTCC
modifications: DNA, backbone not given here
notes: DNA SELEX 1 aptamer clone
[3]
  Screen- Rabbit/No Protein: 1.27
[4]
  Screen- Human/No Protein: 1.27

B7: AMX202.F6: DNA SELEX 1 aptamer clone (nucleic acid)
DNA: CTACCTACGATCTGACTAGCAAGGGGATTGGCTCCGGGTCTGGCGTGCTCGGCACCTTCGGCTTACTCTCATGTAGTTCC
modifications: DNA, backbone not given here
notes: DNA SELEX 1 aptamer clone
[3]
  Screen- Rabbit/No Protein: 1.46
[4]
  Screen- Human/No Protein: 1.49

B8: AMX.236.G1 (nucleic acid)
chain: CTACCTACGATCTGACTAGCCTCAGATTGACTCCGGCTGACTTGTTTTAATCTTCTGAGTGCTTACTCTCATGTAGTTCC
modifications: DNA, backbone and methylation of C not given here
[1]; [5]
  IC50: 46000 pM
